Data as given in patent US9121847B2, “Three-dimensional microfluidic platforms and methods of use thereof” (Massachussetts Institute of Technology, priority 2008, dated 2015).
Read-outs that look alike come from different tables or passages of the source.

How the values were obtained:
[1] = tested on: human dermal microvascular endothelial cells (HMVEC); conditions: for relative normalized length and area change of cell migration: collagen gel polymerized at pH 7.4
Description: Endothelial cell culture. The cell suspension media was prepared with 2×10^6 cells/mL and filled into the cell culturing channel. After filling, the device was kept in the incubator for 30 minutes for cells to settle down and attach on the substrate before the medium was replaced. The cell attachments duration ranges from 30 minutes to several hours depending on the cell types. Human dermal microvascular endothelial cells (HMVEC) were commercially obtained (Lonza, N.J.) and expanded with endothelial growth media (EGM-2MV; Lonza, N.J.) on regular culture flasks pre-coated with collagen I (BD Biosciences, MA) for no more than 9 passages. Recombinant human vascular endothelial growth factor (VEGF; R&D Systems, MN) was mixed with cell culturing media with working concentration of 20 ng/mL and then was filled into the condition channel to generate gradient.
Measuring and quantification of cell migration. The device was kept in incubator containing 5% CO2 at 37° C. and cell migration was monitored by phase contrast microscopy (Nikon Instruments, NY) daily. The length and area of migrated cell outlines were measured by ImageJ. Immunofluorescence staining was performed to visualize the final cell migration result. Actin filaments and nuclei were stained with Rhodamine-Phalloidin (Sigma-Aldrich, Switzerland) and DAPI (Sigma-Aldrich, Switzerland), respectively.
Quantified chemotaxis experiments with endothelial cells. […] Vascular Endothelial Growth Factor-A (VEGF), a known stimulant of endothelial cell migration^23,24 was applied to the condition channel, generating a VEGF gradient in gel scaffold between the cell channel and the condition channel. The control channel was filled with normal cell culture medium without VEGF as a control. […] Length and area changes of migrating cells into collagen scaffolds of different stiffness (pH 7.4 and pH 11) were observed and quantified over several days.
Cells were fixed after 6 days of culture with 5 days of VEGF gradient application, and stained by Rhodamine-Phalloidin and DAPI. White dotted lines indicate the outlines of gel scaffold and small rectangles in scaffold indicate the PDMS posts of 150 μm×150 μm. “0.2%” indicates a collagen concentration of 2.0 mg/mL. […] FIG. 20D is a graph of normalized relative length of migrated cells in the collagen gel scaffold polymerized at pH 7.4 with concentration of 2.0 mg/mL. ‘No VEGF’ serves as the negative control without VEGF gradient. VEGF was applied daily for various durations. ‘VEGF at day 1’ means that VEGF was first applied 1 day after cell seeding. VEGF at day 2 or 3 means VEGF was first applied 2 or 3 days after cell seeding. The relative length is calculated as the difference from the control side. FIG. 20E is a graph of normalized relative area of migrated cells in the collagen gel scaffold polymerized at pH 7.4 with concentration of 2.0 mg/mL. FIGS. 20F and G are graphs of normalized relative length and area of migrated cells in the collagen gel scaffold polymerized at pH 11.0 with concentration of 2.0 mg/mL. All graphs made by average of the value in 4 devices with n=8 (total 8 scaffolds) under one condition.
To evaluate the sensitivity of this assay, VEGF was applied to the condition channel 1, 2 or 3 days after cell seeding. […] For the normalized values, the measured data were normalized to their own baseline data at the initial time point (Eq. 1). Relative normalized values were assessed as the difference between the normalized data of the condition side and the control side. […]

[2] = Dextran diffusion from condition channel to cell channel through collagen gel scaffold, three-channel device; assay type: physicochemical; conditions: 40 kDa dextran; for time of initial diffusion from condition channel through scaffold to cell channel: 0.5 μg/mL, collagen 2.0 mg/mL polymerized at pH 7.4
Text: Media exchange, dextran diffusion experiments and flow application. The filled media should be kept as droplets on inlets and outlets to avoid evaporation of the media. Aspirating an existing droplet and adding a new droplet of media on one side can generate micro flow due to capillary force to replace the old media in the channel with minimal shear stress on the cells. To apply mechanical angiogenic factors such as fluid shear stress or pressure gradient, fluidic circuits consisting of tubes and pumps can be connected to inlets and outlets of the device to apply precisely controlled flow. […] The diffusion profile was taken by fluorescence microscope (Nikon Instruments, NY) and analyzed by Matlab to get the intensity graph from images. […] Stable and linear gradient was achieved and maintained for several hours. […] The collagen scaffold used had 2.0 mg/mL concentration polymerized at pH 7.4.
Equilibrium was established after several hours and a linear concentration profile was maintained for 10 hours.

[3] = tested on: U87MG cells; assay: Microfluidic chemotaxis evaluation of U87MG cells with hEGF gradient; assay type: cell-based, human; conditions: 20 or 200 ng/mL hEGF in condition channel; collagen scaffold
[4] = collagen scaffolds polymerized at pH 11.0 (stiff gels)

Substance: VEGF
- relative normalized length and area change of cell migration ([1]; VEGF added 3 days after cell seeding): did not
- relative normalized length and area change of cell migration ([1]; VEGF applied 1 day after cell seeding): induced cell migration
- relative normalized length and area change of cell migration ([1]; VEGF applied 2 days after cell seeding): induced cell migration
- relative normalized values of the area change [1, 4]: too small to be detected
- relative normalized values of the length change [1, 4]: significant differences of cell migration

Substance: dextran
- time of initial diffusion from condition channel through scaffold to cell channel [2]: 30 min
- time of initial diffusion from condition channel through scaffold to cell channel ([2]; listed as Dextran): ≤ 30 min
- duration for which linear concentration profile was maintained ([2]; collagen gel scaffold, after equilibrium): 10 h

Substance: hEGF: human epidermal growth factor (NSDSECPLSHDGYCLHDGVCMYIEALDKYACNCVVGYIGERCQYRDLKWWELR; UniProt P01133 971-1023, looked up)
- migration speed of U87MG cells, condition side vs control side [3]: higher than that of the control side
